Where two headings read alike, the source gives them in different places. Where only a bound is given, the exact number is not on record here.

The target in one series is CDK5/p35 (Homo sapiens, UniProt Q00535). The series can be described thus: CDK5/p35 kinase assay. As to conditions: read-out: IC50 CDK5/p35; Table 2, 15 μM ATP.
A further series has as its target casein kinase 2. In words: casein kinase 2 assay. The note with it: read-out: IC50 casein kinase 2; Table 2, 15 μM ATP.
The nature of series [1]: Solubility (qualitative remark). The note with it: relative to parent indirubins / 3′-oximes.
Another series has as its target MAPKK. The series can be described thus: MAPKK kinase assay. As to conditions: read-out: IC50 MAPKK; Table 2, 15 μM ATP.
A further series addresses CDK4/cyclin D1 (Homo sapiens, UniProt P11802). The series can be described thus: CDK4/cyclin D1 kinase assay. The note with it: read-out: IC50 CDK4/cyclin D1; Table 2, 15 μM ATP.
The test system of a further series is cGMP-dependent PK. In words: cGMP-dependent PK assay. As to conditions: read-out: IC50 cGMP-dependent PK; Table 2, 15 μM ATP.
For another series, the target named is protein kinase C δ (Homo sapiens, UniProt Q05655). The series can be described thus: protein kinase C δ assay. The note with it: read-out: IC50 protein kinase C δ; Table 2, 15 μM ATP.
Sequence of protein kinase C δ (Q05655 whole entry): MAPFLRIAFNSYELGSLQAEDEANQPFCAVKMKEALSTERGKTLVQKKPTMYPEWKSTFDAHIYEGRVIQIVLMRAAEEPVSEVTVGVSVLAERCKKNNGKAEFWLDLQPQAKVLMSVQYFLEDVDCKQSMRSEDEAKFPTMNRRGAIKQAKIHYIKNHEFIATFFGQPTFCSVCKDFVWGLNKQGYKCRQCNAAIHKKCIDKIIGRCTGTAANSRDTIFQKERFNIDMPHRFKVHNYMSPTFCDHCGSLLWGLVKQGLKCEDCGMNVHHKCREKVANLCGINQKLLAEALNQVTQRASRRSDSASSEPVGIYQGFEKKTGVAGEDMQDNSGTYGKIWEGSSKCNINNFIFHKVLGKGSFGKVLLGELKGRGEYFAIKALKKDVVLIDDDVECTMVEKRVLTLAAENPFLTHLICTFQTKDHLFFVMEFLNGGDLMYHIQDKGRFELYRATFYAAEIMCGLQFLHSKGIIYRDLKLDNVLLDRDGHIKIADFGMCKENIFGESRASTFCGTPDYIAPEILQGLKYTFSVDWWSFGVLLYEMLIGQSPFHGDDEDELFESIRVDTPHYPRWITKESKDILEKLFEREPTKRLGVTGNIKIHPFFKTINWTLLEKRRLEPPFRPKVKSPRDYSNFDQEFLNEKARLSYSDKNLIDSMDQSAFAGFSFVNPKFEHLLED
In the next series the target is GSK-3α/β. The series can be described thus: GSK-3α/β kinase assay (GS-1 peptide, 15 μM ATP). In kind it is biochemical, porcine.
Another series concerns the target T1, protein kinase C ζ (Homo sapiens, UniProt Q05513).
T1 sequence (Q05513 1-592): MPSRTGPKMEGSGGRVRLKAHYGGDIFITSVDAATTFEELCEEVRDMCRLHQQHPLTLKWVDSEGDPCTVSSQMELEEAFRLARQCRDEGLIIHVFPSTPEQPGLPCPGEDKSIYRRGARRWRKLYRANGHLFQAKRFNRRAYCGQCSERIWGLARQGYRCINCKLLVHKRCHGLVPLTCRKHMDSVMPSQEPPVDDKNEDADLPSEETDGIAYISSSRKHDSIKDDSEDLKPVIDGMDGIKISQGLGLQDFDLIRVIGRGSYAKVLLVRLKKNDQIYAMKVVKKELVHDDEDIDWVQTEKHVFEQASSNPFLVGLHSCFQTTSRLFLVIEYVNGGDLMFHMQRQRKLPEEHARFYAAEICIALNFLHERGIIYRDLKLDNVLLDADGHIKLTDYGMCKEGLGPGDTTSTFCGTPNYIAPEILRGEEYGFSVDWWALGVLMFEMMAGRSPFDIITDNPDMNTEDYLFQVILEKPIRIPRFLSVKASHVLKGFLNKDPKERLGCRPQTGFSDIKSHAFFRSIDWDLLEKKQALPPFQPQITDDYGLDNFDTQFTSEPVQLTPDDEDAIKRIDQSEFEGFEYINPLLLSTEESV
In words: protein kinase C ζ assay. As to conditions: read-out: IC50 protein kinase C ζ; Table 2, 15 μM ATP.

Another series concerns the target erk1 (Homo sapiens, UniProt P27361). In words: erk1 kinase assay. The note with it: read-out: IC50 erk1; Table 2, 15 μM ATP.
Series [2] has as its target insulin receptor Tyr kinase. In words: insulin receptor Tyr kinase assay. As to conditions: read-out: IC50 insulin receptor Tyr kinase; Table 2, 15 μM ATP.
For another series, the target named is protein kinase C β2 (Homo sapiens, UniProt P05771). In words: protein kinase C β2 assay. As to conditions: read-out: IC50 protein kinase C β2; Table 2, 15 μM ATP.
Sequence of protein kinase C β2 (P05771 1-673 isoform P05771-2): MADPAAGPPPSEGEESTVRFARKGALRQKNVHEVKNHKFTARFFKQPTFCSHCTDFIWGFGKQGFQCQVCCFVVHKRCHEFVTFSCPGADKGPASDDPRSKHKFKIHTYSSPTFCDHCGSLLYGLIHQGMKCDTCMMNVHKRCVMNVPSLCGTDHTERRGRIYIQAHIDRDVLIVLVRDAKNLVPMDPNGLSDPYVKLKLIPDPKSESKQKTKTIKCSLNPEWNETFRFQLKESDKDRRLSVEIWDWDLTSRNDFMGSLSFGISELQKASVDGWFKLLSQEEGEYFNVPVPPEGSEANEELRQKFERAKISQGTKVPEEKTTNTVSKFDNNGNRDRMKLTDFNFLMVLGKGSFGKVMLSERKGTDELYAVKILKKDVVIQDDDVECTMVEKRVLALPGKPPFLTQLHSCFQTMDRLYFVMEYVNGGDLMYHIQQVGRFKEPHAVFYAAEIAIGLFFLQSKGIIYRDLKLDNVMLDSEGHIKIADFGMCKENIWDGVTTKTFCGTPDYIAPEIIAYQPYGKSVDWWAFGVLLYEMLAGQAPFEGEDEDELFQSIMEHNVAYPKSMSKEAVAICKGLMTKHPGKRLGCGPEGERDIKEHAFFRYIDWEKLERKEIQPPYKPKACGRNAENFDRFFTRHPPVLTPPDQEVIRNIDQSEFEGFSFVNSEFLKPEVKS
The next series concerns the target protein kinase C η (Homo sapiens, UniProt P24723). The series can be described thus: protein kinase C η assay. As to conditions: read-out: IC50 protein kinase C η; Table 2, 15 μM ATP.
The target in a further series is protein kinase C γ (Homo sapiens, UniProt P05129). In words: protein kinase C γ assay. The note with it: read-out: IC50 protein kinase C γ; Table 2, 15 μM ATP.
Series [3] has as its target T2, AhR (Mus musculus, UniProt P30561).
T2 sequence (P30561 1-848): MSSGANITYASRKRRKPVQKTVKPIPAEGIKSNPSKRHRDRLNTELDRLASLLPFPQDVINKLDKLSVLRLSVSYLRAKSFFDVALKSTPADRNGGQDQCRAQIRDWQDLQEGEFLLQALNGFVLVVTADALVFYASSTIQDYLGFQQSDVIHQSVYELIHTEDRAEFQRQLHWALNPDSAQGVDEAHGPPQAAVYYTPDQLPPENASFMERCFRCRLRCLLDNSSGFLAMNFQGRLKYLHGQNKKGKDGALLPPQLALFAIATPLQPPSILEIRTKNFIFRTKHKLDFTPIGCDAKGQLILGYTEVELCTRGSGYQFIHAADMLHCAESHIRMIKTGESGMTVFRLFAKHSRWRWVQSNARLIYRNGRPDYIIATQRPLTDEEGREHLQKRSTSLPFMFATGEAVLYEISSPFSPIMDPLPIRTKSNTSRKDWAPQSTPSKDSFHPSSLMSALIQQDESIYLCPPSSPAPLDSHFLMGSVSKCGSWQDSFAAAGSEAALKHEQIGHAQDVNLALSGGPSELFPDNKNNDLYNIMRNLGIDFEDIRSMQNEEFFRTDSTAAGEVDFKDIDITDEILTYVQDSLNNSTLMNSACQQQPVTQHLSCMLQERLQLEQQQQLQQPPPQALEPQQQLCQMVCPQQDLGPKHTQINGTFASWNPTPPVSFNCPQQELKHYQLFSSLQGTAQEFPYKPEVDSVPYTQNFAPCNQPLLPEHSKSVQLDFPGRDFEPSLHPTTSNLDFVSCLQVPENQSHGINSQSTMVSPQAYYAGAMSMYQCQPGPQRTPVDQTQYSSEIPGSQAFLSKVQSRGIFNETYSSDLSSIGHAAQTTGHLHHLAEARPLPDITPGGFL
As to conditions: read-out: EC50 AhR (hepatoma cell line); Table 4; EGFP at 24 hours.

Series [4] has as its target AhR (Homo sapiens, UniProt P35869). The series can be described thus: Yeast AhR reporter assay (β-galactosidase). As to conditions: read-out: EC50 AhR (yeast); Table 4; * = inactive at the indicated highest concentration tested.
Where [5] appears, read: Table 1, read-out: IC50 GSK-3 α/β.
Where [6] appears, read: Table 2, 15 μM ATP, read-out: IC50 GSK-3α/β.
Setting [7] is: Table 5, read-out: IC50 GSK-3α/β.
[8] abbreviates: Table 7, GSK-3, read-out: IC50exp.

Sequence of CDK5/p35 (Q00535 whole entry, species assumed): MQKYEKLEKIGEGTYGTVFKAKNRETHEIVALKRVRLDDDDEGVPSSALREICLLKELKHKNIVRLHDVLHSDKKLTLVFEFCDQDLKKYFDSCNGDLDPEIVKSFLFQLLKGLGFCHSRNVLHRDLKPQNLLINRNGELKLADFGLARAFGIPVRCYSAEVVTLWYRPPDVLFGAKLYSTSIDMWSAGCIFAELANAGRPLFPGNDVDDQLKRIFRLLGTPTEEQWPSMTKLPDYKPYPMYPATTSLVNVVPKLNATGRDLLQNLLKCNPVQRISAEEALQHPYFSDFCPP
Sequence of CDK5/p35 (Q15078 whole entry partner, species assumed): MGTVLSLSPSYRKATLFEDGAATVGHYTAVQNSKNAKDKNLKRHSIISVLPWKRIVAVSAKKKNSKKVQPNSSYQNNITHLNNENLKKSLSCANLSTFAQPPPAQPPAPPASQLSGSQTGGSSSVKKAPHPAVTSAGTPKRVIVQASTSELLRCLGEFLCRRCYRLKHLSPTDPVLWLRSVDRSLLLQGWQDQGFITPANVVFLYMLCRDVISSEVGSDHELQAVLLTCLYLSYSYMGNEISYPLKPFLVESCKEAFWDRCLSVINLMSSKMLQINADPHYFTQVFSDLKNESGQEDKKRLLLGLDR
Sequence of erk1 (P27361 whole entry, species assumed): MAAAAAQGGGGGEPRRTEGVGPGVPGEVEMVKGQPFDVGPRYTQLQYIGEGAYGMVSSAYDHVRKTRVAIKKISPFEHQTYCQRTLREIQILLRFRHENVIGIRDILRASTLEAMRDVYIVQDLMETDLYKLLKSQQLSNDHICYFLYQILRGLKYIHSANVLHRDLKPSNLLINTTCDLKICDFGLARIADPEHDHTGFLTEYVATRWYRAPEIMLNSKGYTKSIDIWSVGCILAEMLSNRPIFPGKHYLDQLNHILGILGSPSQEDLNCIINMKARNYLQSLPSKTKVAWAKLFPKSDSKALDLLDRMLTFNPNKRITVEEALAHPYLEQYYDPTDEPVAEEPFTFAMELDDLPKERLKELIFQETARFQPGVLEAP
Sequence of CDK4/cyclin D1 (P11802 whole entry, species assumed): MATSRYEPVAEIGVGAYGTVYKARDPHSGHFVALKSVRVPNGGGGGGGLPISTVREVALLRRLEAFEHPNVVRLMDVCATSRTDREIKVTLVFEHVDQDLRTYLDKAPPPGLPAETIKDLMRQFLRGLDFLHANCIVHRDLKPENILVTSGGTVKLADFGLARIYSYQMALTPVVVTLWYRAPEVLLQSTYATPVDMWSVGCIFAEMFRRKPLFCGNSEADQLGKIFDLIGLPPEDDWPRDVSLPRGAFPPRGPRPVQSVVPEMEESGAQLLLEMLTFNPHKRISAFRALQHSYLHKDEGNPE
Sequence of CDK4/cyclin D1 (P24385 whole entry partner, species assumed): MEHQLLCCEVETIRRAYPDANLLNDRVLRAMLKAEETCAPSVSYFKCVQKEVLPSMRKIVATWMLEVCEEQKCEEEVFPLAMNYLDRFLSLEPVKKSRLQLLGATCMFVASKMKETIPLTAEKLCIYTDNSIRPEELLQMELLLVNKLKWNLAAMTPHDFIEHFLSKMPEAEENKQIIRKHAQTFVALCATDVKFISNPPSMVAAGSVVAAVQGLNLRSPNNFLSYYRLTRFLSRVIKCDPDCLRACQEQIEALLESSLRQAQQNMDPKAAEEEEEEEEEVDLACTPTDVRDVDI
Sequence of protein kinase C η (P24723 whole entry): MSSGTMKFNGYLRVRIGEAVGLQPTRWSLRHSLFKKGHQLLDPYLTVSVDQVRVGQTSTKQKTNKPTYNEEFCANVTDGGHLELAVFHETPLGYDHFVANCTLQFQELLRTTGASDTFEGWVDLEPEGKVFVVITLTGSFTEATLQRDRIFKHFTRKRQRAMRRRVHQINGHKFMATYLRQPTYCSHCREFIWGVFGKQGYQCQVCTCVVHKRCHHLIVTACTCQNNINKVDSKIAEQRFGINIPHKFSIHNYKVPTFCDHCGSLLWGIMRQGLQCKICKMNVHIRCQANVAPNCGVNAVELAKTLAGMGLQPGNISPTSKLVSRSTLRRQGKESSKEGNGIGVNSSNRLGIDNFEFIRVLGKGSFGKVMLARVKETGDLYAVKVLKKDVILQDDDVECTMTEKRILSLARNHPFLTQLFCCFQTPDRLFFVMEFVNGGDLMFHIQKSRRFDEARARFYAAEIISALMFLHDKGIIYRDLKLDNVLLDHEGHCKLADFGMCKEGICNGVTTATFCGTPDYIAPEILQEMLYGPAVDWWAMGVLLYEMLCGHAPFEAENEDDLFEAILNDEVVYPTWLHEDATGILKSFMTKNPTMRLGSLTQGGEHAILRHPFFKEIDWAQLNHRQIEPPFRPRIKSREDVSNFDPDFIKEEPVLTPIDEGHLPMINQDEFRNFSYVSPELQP

One may read the EC50 as the concentration giving half of the maximal effect. For `CC(=O)ON=C1C(=C2C(=O)Nc3cc(Br)ccc32)Nc2ccccc21` [8a, 6-Bromoindirubin-3′-acetoxime], the IC50 at CDK5/p35 is 2400 nM; at casein kinase 2, over 10 µM; on MAPKK, over 10 µM; on CDK4/cyclin D1, over 10 µM; in the series on cGMP-dependent PK, over 10 µM; at protein kinase C δ it was over 10 µM. Also, the IC50 at GSK-3α/β (setting [5]) was 10 nM; on GSK-3α/β (setting [6]) it was 10 nM; at GSK-3α/β (Table 4, read-out: IC50 GSK-3) it was 10 nM; on GSK-3α/β (setting [7]), 10 nM; at GSK-3α/β (setting [8]), 10 nM; at protein kinase C ζ it was over 10 µM. Further, the IC50 (on erk1; in series [2]; at protein kinase C β2; on protein kinase C η; on protein kinase C γ) was over 10 µM each time. For the same molecule, the “solubility (in words)” value in series [1] is recorded as “less soluble”. Also, the EC50 at AhR [3] turned out to be 160 nM.

For `O=C1Nc2ccccc2/C1=C1/Nc2ccccc2/C1=N\O` [7h, indirubin-3′-oxime], in series [1], the “solubility (in words)” value was “increased solubility”. The EC50 at AhR [4] was found to be 25 nM; on AhR [3] it was 720 nM.

For the molecule `CON=C1C(=C2C(=O)Nc3cc(Br)ccc32)Nc2ccccc21` [9a, 6-Bromoindirubin-3′-methoxime], the IC50 on CDK5/p35 was 2200 nM; on casein kinase 2, 9 µM; at MAPKK, over 10 µM; at CDK4/cyclin D1 it was over 10 µM; in the series on cGMP-dependent PK, over 10 µM; at protein kinase C δ it was over 10 µM. Further, the IC50 on GSK-3α/β (setting [5]) was 30 nM; on GSK-3α/β (setting [6]) it was 30 nM; at GSK-3α/β (Table 4, read-out: IC50 GSK-3), 30 nM; at GSK-3α/β (setting [7]) it was 30 nM; on GSK-3α/β (setting [8]), 30 nM; on protein kinase C ζ, over 10 µM. In addition, the IC50 (on erk1; in [2]; on protein kinase C β2; at protein kinase C η; at protein kinase C γ) was over 10 µM each time. Further, the “solubility (in words)” value in series [1] is recorded as “less soluble”. In addition, the EC50 on AhR [4] is over 100 nM; on AhR [3] it was 30 nM.
